Among the data in US12195482B1 (Arcus Biosciences, Inc., priority 2022, dated 2025) are IC50 values, retold here.

The target in experiment [1] is T1, recombinant human MER (Homo sapiens, UniProt Q12866).
T1 construct: purchased Invitrogen
T1 sequence (Q12866 21-999): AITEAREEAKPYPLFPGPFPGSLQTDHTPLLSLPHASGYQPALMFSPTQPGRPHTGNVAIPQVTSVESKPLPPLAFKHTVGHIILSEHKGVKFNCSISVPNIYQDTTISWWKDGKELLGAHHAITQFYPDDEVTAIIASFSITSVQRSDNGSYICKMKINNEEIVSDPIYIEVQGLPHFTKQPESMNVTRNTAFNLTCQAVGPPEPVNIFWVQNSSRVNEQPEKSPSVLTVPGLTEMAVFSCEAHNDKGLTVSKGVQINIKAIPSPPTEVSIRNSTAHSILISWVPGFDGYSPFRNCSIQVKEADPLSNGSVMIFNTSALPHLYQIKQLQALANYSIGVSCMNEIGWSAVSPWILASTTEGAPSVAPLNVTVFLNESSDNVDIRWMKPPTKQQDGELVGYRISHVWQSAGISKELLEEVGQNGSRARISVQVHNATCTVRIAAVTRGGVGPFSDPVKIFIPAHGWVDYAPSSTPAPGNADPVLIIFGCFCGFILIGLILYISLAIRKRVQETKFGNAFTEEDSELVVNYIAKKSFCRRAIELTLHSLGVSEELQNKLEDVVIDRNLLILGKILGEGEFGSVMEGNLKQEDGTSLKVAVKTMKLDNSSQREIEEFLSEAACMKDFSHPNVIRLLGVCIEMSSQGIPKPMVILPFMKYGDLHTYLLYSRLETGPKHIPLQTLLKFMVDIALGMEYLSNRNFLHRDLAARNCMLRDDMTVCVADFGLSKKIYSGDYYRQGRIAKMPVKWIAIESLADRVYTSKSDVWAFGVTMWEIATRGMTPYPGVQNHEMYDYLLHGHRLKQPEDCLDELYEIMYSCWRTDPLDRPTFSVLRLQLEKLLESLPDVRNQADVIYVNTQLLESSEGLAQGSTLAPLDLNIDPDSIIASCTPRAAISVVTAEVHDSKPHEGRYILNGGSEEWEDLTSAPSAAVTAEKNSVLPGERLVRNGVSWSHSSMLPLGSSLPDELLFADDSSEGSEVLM
Description: Biochemical potency, HTRF KinEASE-TK kinase assay. Conditions: 1 nM MER, 700 μM ATP. A digest of the protocol:
(§1)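 HTRF 665/620 readout after a 2 h RT kinase reaction (final 700 μM ATP, 800 nM biotinylated TK substrate, 1% DMSO, HEPES pH 7.4 buffer) gave percent activity. Final enzyme was 5 nM for AXL, 1 nM for TYRO3 or MER, each preincubated 1 h with compound.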
(Time-resolved FRET reads energy transfer from a long-lived donor to a nearby acceptor.)

In experiment [2] the target is T2, recombinant human TYRO3 (Homo sapiens, UniProt Q06418).
T2 construct: purchased Invitrogen
T2 sequence (Q06418 41-890): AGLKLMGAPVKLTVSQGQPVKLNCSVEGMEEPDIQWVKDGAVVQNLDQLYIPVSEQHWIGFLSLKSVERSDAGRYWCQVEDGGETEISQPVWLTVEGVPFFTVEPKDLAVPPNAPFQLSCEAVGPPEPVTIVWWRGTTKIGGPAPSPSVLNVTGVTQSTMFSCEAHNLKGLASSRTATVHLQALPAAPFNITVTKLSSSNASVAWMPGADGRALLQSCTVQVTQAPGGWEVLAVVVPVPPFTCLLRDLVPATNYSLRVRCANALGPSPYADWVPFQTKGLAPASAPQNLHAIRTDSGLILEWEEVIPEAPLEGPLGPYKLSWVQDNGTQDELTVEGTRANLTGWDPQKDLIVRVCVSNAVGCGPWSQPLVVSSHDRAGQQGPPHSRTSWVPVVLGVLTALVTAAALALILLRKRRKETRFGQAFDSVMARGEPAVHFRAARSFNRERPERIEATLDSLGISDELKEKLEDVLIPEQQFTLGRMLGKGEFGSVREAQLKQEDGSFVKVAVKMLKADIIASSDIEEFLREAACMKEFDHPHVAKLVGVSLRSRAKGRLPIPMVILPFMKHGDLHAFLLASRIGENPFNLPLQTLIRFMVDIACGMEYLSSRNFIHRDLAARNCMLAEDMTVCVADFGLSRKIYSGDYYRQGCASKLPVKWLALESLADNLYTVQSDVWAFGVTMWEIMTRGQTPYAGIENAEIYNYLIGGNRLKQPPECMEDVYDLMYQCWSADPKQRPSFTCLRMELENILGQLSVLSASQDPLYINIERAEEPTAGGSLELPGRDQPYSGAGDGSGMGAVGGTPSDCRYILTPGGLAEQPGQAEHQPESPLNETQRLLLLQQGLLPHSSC
Description: Biochemical potency, HTRF KinEASE-TK kinase assay. Conditions: 1 nM TYRO3, 700 μM ATP. The essentials:
as §1

Bounds are passed on as bounds.

On to `CS(=O)(=O)c1cccnc1-c1ccc(-c2n[nH]c3ncc(-c4ccc5c(c4)CC[C@@H](N4C6COCC4C6)CC5)cc23)cc1` [Example 101, 6-[(7S)-2-{3-[4-(3-Methanesulfonylpyridin-2-yl)phenyl]-1H-pyrazolo[3,4-b]pyridin-5-yl}-6,7,8,9-tetrahydro-5H-benzo[7]annulen-7-yl]-3-oxa-6-azabicyclo[3.1.1]heptane], for which the IC50 – broadly, the point on the concentration scale where inhibition reaches its midpoint – was 0.1 to 1 µM in experiment [1] and < 0.1 µM in experiment [2].
For `CS(=O)(=O)c1cccnc1-c1ccc(-c2c[nH]c3ncc(-c4ccc5c(c4)CC[C@@H](N4C6COCC4C6)CC5)cc23)cc1` [Example 102, 6-[(7S)-2-{3-[4-(3-Methanesulfonylpyridin-2-yl)phenyl]-1H-pyrrolo[2,3-b]pyridin-5-yl}-6,7,8,9-tetrahydro-5H-benzo[7]annulen-7-yl]-3-oxa-6-azabicyclo[3.1.1]heptane] the same measures were 0.1 to 1 µM and < 0.1 µM.
Regarding `FC(F)(F)Oc1cccnc1-c1ccc(-c2c[nH]c3ncc(-c4ccc5c(c4)CC[C@@H](N4C6COCC4C6)CC5)cc23)cc1` [Example 103, 6-[(7S)-2-(3-{4-[3-(Trifluoromethoxy)pyridin-2-yl]phenyl}-1H-pyrrolo[2,3-b]pyridin-5-yl)-6,7,8,9-tetrahydro-5H-benzo[7]annulen-7-yl]-3-oxa-6-azabicyclo[3.1.1]heptane], the IC50 in experiment [1] and in experiment [2] was > 1 µM each time.
Regarding `c1cnc(-c2ccc(-c3n[nH]c4ncc(-c5ccc6c(c5)CC[C@@H](N5C7COCC5C7)CC6)cc34)cc2)c(O[C@@H]2CCOC2)c1` [Example 104, 6-[(7S)-2-[3-(4-{3-[(3R)—Oxolan-3-yloxy]pyridin-2-yl}phenyl)-1H-pyrazolo[3,4-b]pyridin-5-yl]-6,7,8,9-tetrahydro-5H-benzo[7]annulen-7-yl]-3-oxa-6-azabicyclo[3.1.1]heptane], the 50% inhibitory concentration (IC50) in experiment [1] and in experiment [2] was 0.1 to 1 µM throughout.
Consider `Cc1cccnc1-c1ccc(-c2n[nH]c3ncc(-c4ccc5c(c4)CC[C@@](C)(N4CCC[C@H]4C)CC5)cc23)nc1` [Example 105, 3-Methyl-6′-{5-[(7S)-7-methyl-7-[(2R)-2-methylpyrrolidin-1-yl]-6,7,8,9-tetrahydro-5H-benzo[7]annulen-2-yl]-1H-pyrazolo[3,4-b]pyridin-3-yl}-2,3′-bipyridine], for which the IC50 in experiment [1] and in experiment [2] was < 0.1 µM in each case.
`Cn1nccc1-c1ccc(-c2n[nH]c3ncc(-c4ccc5c(c4)CC[C@@H](N4C6COCC4C6)CC5)cc23)cc1` [Example 109, 6-[(7S)-2-{3-[4-(1-Methyl-1H-pyrazol-5-yl)phenyl]-1H-pyrazolo[3,4-b]pyridin-5-yl}-6,7,8,9-tetrahydro-5H-benzo[7]annulen-7-yl]-3-oxa-6-azabicyclo[3.1.1]heptane]: the IC50 in experiment [1] and in experiment [2] was 0.1 to 1 µM in each case.
With `Cn1ncnc1-c1ccc(-c2n[nH]c3ncc(-c4ccc5c(c4)CC[C@@H](N4C6COCC4C6)CC5)cc23)cc1` [Example 110, 6-[(7S)-2-{3-[4-(1-Methyl-1H-1,2,4-triazol-5-yl)phenyl]-2H-pyrazolo[3,4-b]pyridin-5-yl}-6,7,8,9-tetrahydro-5H-benzo[7]annulen-7-yl]-3-oxa-6-azabicyclo[3.1.1]heptane], the IC50 in experiment [1] is 0.1 to 1 µM; in experiment [2] it was < 0.1 µM.
In the same order, the values of `Cn1ccnc1-c1ccc(-c2n[nH]c3ncc(-c4ccc5c(c4)CC[C@@H](N4C6COCC4C6)CC5)cc23)cc1` [Example 111, 6-[(7S)-2-{3-[4-(1-Methyl-1H-imidazol-2-yl)phenyl]-1H-pyrazolo[3,4-b]pyridin-5-yl}-6,7,8,9-tetrahydro-5H-benzo[7]annulen-7-yl]-3-oxa-6-azabicyclo[3.1.1]heptane] are < 0.1 µM and < 0.1 µM.
In the same order, the values of `C[C@@H]1CCCN1[C@@]1(C)CCc2ccc(-c3cnc4[nH]nc(-c5ccc(-c6ncnn6C)cc5)c4c3)cc2CC1` [Example 112, 1-Methyl-5-(4-{5-[(7S)-7-methyl-7-[(2R)-2-methylpyrrolidin-1-yl]-6,7,8,9-tetrahydro-5H-benzo[7]annulen-2-yl]-1H-pyrazolo[3,4-b]pyridin-3-yl}phenyl)-1H-1,2,4-triazole] are < 0.1 µM and < 0.1 µM.
`CC(C)(O)c1ccccc1-c1ccc(-c2n[nH]c3ncc(-c4ccc5c(c4)CC[C@@H](N4C6COCC4C6)CC5)cc23)cn1` [Example 113, 2-[2-(5-{5-[(7S)-7-{3-Oxa-6-azabicyclo[3.1.1]heptan-6-yl}-6,7,8,9-tetrahydro-5H-benzo[7]annulen-2-yl]-1H-pyrazolo[3,4-b]pyridin-3-yl}pyridin-2-yl)phenyl]propan-2-ol]: the IC50 in experiment [1] and in experiment [2] was 0.1 to 1 µM in each case.
As for `CC(C)(O)c1ccccc1-c1ccc(-c2c[nH]c3ncc(-c4ccc5c(c4)CC[C@@H](N4C6COCC4C6)CC5)cc23)cn1` [Example 114, 2-[2-(5-{5-[(7S)-7-{3-Oxa-6-azabicyclo[3.1.1]heptan-6-yl}-6,7,8,9-tetrahydro-5H-benzo[7]annulen-2-yl]-1H-pyrrolo[2,3-b]pyridin-3-yl}pyridin-2-yl)phenyl]propan-2-ol], the IC50 in experiment [1] and in experiment [2] was 0.1 to 1 µM each time.
`Cc1ccc(-c2ccc(-c3n[nH]c4ncc(-c5ccc6c(c5)CC[C@@H](N5C7COCC5C7)CC6)cc34)cc2)nc1` [Example 115, 6-[(7S)-2-{3-[4-(5-Methylpyridin-2-yl)phenyl]-1H-pyrazolo[3,4-b]pyridin-5-yl}-6,7,8,9-tetrahydro-5H-benzo[7]annulen-7-yl]-3-oxa-6-azabicyclo[3.1.1]heptane]: the IC50 in experiment [1] was 0.1 to 1 µM; in experiment [2], > 1 µM.
For `Cc1cccc(-c2ccc(-c3n[nH]c4ncc(-c5ccc6c(c5)CC[C@@H](N5C7COCC5C7)CC6)cc34)cc2)n1` [Example 116, 6-[(7S)-2-{3-[4-(6-Methylpyridin-2-yl)phenyl]-1H-pyrazolo[3,4-b]pyridin-5-yl}-6,7,8,9-tetrahydro-5H-benzo[7]annulen-7-yl]-3-oxa-6-azabicyclo[3.1.1]heptane] the same measures were 0.1 to 1 µM and 0.1 to 1 µM.
In the case of `Cc1ccnc(-c2ccc(-c3n[nH]c4ncc(-c5ccc6c(c5)CC[C@@H](N5C7COCC5C7)CC6)cc34)cc2)c1` [Example 117, 6-[(7S)-2-{3-[4-(4-Methylpyridin-2-yl)phenyl]-1H-pyrazolo[3,4-b]pyridin-5-yl}-6,7,8,9-tetrahydro-5H-benzo[7]annulen-7-yl]-3-oxa-6-azabicyclo[3.1.1]heptane], the half-inhibitory concentration (IC50) in experiment [1] was > 1 µM; in experiment [2] it was 0.1 to 1 µM.
For `Cc1ccnc(-c2ccc(-c3n[nH]c4ncc(-c5ccc6c(c5)CC[C@@H](N5C7COCC5C7)CC6)cc34)cc2)c1C` [Example 118, 6-[(7S)-2-{3-[4-(3,4-Dimethylpyridin-2-yl)phenyl]-1H-pyrazolo[3,4-b]pyridin-5-yl}-6,7,8,9-tetrahydro-5H-benzo[7]annulen-7-yl]-3-oxa-6-azabicyclo[3.1.1]heptane] the same measures were 0.1 to 1 µM and < 0.1 µM.
